Test results reported in patent US20250339569A1, “CARBONIC ANHYDRASE IX LIGANDS” (priority 2021, published 2025).
Read-outs that look alike come from different tables or passages of the source. Starred links: 1 amine or outer side, 2 acyl side, 3 side chain; linkers in the order of their positions; H or OH if unused. Positions of bridges follow the written chain, without caps; N, C: chain ends. Non-standard residues stand in square brackets, D forms with d. Residues, ends and D or L forms follow the SMILES beside them. *: point of attachment. X38 = O=C(Cc1cc(=O)[nH][nH]c1=O)Nc1cccc(C[C@H](N[*:1])C(=O)[*:2])c1; DOTA = O=C(O)CN1CCN(CC(=O)O)CCN(CC(=O)*)CCN(CC(=O)O)CC1; Phe(4-NH2) = Nc1ccc(C[C@H](N)C(=O)O)cc1; mXylylene = c1cc(C[*:1])cc(C[*:2])c1; dOrn(Me2) = CN(C)CCC[C@@H](N)C(=O)O; X12 = O=C(CC1CCN([*:1])CC1)[*:2]; X2 = O=C(CN1CCC(N[*:1])CC1)[*:2]; X26 = NS(=O)(=O)c1cccc(C(=O)*)c1; X41 = NS(=O)(=O)c1cccc(N*)c1; dPip = O=C(O)[C@H]1CCCCN1; dNMeA = CN[C@H](C)C(=O)O; Dap = NC[C@H](N)C(=O)O; Inp = O=C(O)C1CCNCC1

How the values were obtained:
[1] = molecular target: T1, human carbonic anhydrase IX (hCAIX-Fc) (Homo sapiens, UniProt Q16790); assay: Surface plasmon resonance assay with hCAIX-Fc; type: binding; conditions: 25° C.; for t1/2 category (activity): SPR dissociation half-life, hCAIX-Fc; for Kd: SPR, hCAIX-Fc captured, read-out: pKD category (activity) (converted)
T1 construct: purchased SinoBliological (Sino Biological) 10107-H02H

[2] = molecular target: T2, CAIX-expressing human HT-29 colorectal cancer cells (Homo sapiens, UniProt Q16790); assay: FACS binding assay (IC50 determination, competition with tracer 3BP-2776 or 3BP-4149); conditions: 4° C., 1 hour, read-out: pIC50 category (activity) (converted)
T2 construct: CAIX-expressing human HT-29 colorectal cancer cells; host or cells: HT-29 human colorectal cancer cells
Summary of the method: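 HT-29 cells in FACS buffer (PBS, 1% FCS) at 500.000 cells/ml were exposed to compounds competing with a labelled tracer, with biotinylated compounds detected by 1 μg/mL APC-streptavidin for 30 min on ice. APC/Cy5 median fluorescence was read by flow cytometry and IC50 derived by 4PL fit.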

[3] = FACS binding assay, HT-29 cells, competition with tracer 3BP-4149 (3 nM, Cy5-labeled)
[4] = FACS binding assay, HT-29 cells, competition with tracer 3BP-2776 (10 nM, biotin-labeled)
[5] = FACS competition on HT-29 cells, Tracer ID 3BP-2776 (10 nM, biotin-labeled)

| Structure (SMILES) | t1/2 category (activity) [1] | Kd [1] [nM] | IC50 [2, 3] [nM] | IC50 [2, 4] [nM] | IC50 [2, 5] [nM] |
| --- | --- | --- | --- | --- | --- |
| CC(C)C[C@@H]1NC(=O)[C@H](Cc2c[nH]c3ccccc23)NC(=O)[C@H](CC(=O)O)NC(=O)[C@H]2CCCN2C(=O)[C@H](CCC(=O)O)NC(=O)[C@@H]2CSCc3cccc(c3)CSC[C@@H](C(N)=O)NC(=O)[C@H](CNC(=O)C[C@H](NC(=O)CC3CCN(C(=O)CN4CCN(CC(=O)O)CCN(CC(=O)O)CCN(CC(=O)O)CC4)CC3)C(=O)N2)NC(=O)[C@H](Cc2c[nH]c3ccccc23)NC(=O)[C@H]([C@@H](C)O)NC1=O [3BP-4259] ({DOTA}-[X12]DCE[dP]DWLTW[Dap]C-NH2; lactam 2-11; linker 3-12 via mXylylene) | D (t1/2≤2.0 minutes) | < 10 | – | < 10 | – |
| CC(C)C[C@@H]1NC(=O)[C@H](Cc2c[nH]c3ccccc23)NC(=O)[C@H](CC(=O)O)NC(=O)[C@H]2CCCN2C(=O)[C@H](CCC(=O)O)NC(=O)[C@@H]2CSCc3cccc(c3)CSC[C@@H](C(N)=O)NC(=O)[C@H](CNC(=O)CC[C@H](NC(=O)[C@@H](NC(=O)CN3CCC(NC(=O)CN4CCN(CC(=O)O)CCN(CC(=O)O)CCN(CC(=O)O)CC4)CC3)C(C)C)C(=O)N2)NC(=O)[C@H](Cc2c[nH]c3ccccc23)NC(=O)[C@H]([C@@H](C)O)NC1=O [3BP-4175] ({DOTA}-[X2]VECE[dP]DWLTW[Dap]C-NH2; lactam 3-12; linker 4-13 via mXylylene) | A (t1/2>15.0 minutes) | < 10 | – | < 10 | – |
| CC(C)C[C@@H]1NC(=O)[C@H](Cc2c[nH]c3ccccc23)NC(=O)[C@H](CC(=O)O)NC(=O)[C@H]2CCCN2C(=O)[C@H](CCC(=O)O)NC(=O)[C@@H]2CSCc3cccc(c3)CSC[C@@H](C(N)=O)NC(=O)[C@H](CNC(=O)C[C@H](NC(=O)C3CCN(C(=O)CN4CCN(CC(=O)O)CCN(CC(=O)O)CCN(CC(=O)O)CC4)CC3)C(=O)N2)NC(=O)[C@H](Cc2c[nH]c3ccccc23)NC(=O)[C@H]([C@@H](C)O)NC1=O [3BP-4256] ({DOTA-Inp}-DCE[dP]DWLTW[Dap]C-NH2; lactam 1-10; linker 2-11 via mXylylene) | C (t1/2 between 2.1 and 5.0 minutes) | < 10 | – | < 10 | – |
| CC(=O)N[C@H](C(=O)N[C@@H](Cc1ccc(O)cc1)C(=O)N[C@H]1CSCc2cccc(c2)CSC[C@@H](C(N)=O)NC(=O)[C@H](C)NC(=O)[C@H](Cc2c[nH]c3ccccc23)NC(=O)[C@H]([C@@H](C)O)NC(=O)[C@H](CC(C)C)NC(=O)[C@H](Cc2c[nH]c3ccccc23)NC(=O)[C@H](CC(=O)O)NC(=O)[C@H]2CCCCN2C(=O)[C@H](CCC(=O)O)NC1=O)C(C)C [3BP-3283] (Ac-VYCE[dPip]DWLTWAC-NH2; linker 3-12 via mXylylene) | – | < 10 | – | – | < 10 |
| CC(=O)N[C@H](C(=O)N[C@@H](Cc1ccc(O)cc1)C(=O)N[C@H]1CSCc2cccc(c2)CSC[C@@H](C(N)=O)NC(=O)[C@H](C)NC(=O)[C@H](Cc2c[nH]c3ccccc23)NC(=O)[C@H]([C@@H](C)O)NC(=O)[C@H](CC(C)C)NC(=O)[C@H](Cc2c[nH]c3ccccc23)NC(=O)[C@H](CC(=O)O)NC(=O)[C@@H](C)N(C)C(=O)[C@H](CCC(=O)O)NC1=O)C(C)C [3BP-3281] (Ac-VYCE[dNMeA]DWLTWAC-NH2; linker 3-12 via mXylylene) | – | < 10 | – | – | < 10 |

Next, values leading:

| t1/2 category (activity) [1] | Kd [1] [nM] | IC50 [2, 3] [nM] | IC50 [2, 4] [nM] | IC50 [2, 5] [nM] | Structure (SMILES) |
| --- | --- | --- | --- | --- | --- |
| A (t1/2>15.0 minutes) | < 10 | < 10 | – | – | CC(C)C[C@@H]1NC(=O)[C@H](Cc2ccc(NC(=O)c3cccc(S(N)(=O)=O)c3)cc2)NC(=O)[C@H](CC(=O)O)NC(=O)[C@H]2CCCN2C(=O)[C@H](CCC(=O)O)NC(=O)[C@@H](NC(=O)[C@H](Cc2ccc(O)cc2)NC(=O)[C@@H](NC(=O)CN2CCC(NC(=O)CN3CCN(CC(=O)O)CCN(CC(=O)O)CCN(CC(=O)O)CC3)CC2)C(C)C)CSCc2cccc(c2)CSC[C@@H](C(N)=O)NC(=O)[C@H](CO)NC(=O)[C@H](Cc2c[nH]c3ccccc23)NC(=O)[C@H]([C@@H](C)O)NC1=O [3BP-4408] ({DOTA}-[X2]VYCE[dP]D[Phe(4-NH2)](X26)LTWSC-NH2; linker 4-13 via mXylylene) |
| B (t1/2 between 5.1 and 15.0 minutes) | < 10 | 10 to 79.4 | – | – | CC(C)C[C@@H]1NC(=O)[C@H](Cc2cccc(NC(=O)Cc3cc(=O)[nH][nH]c3=O)c2)NC(=O)[C@H](CC(=O)O)NC(=O)[C@H]2CCCN2C(=O)[C@H](CCC(=O)O)NC(=O)[C@@H](NC(=O)[C@H](Cc2ccc(O)cc2)NC(=O)[C@@H](NC(=O)CN2CCC(NC(=O)CN3CCN(CC(=O)O)CCN(CC(=O)O)CCN(CC(=O)O)CC3)CC2)C(C)C)CSCc2cccc(c2)CSC[C@@H](C(N)=O)NC(=O)[C@H](CO)NC(=O)[C@H](Cc2c[nH]c3ccccc23)NC(=O)[C@H]([C@@H](C)O)NC1=O [3BP-4322] ({DOTA}-[X2]VYCE[dP]D[X38]LTWSC-NH2; linker 4-13 via mXylylene) |
| C (t1/2 between 2.1 and 5.0 minutes) | < 10 | – | < 10 | – | CC(C)C[C@@H]1NC(=O)[C@H](Cc2c[nH]c3ccccc23)NC(=O)[C@H](CC(=O)O)NC(=O)[C@H]2CCCN2C(=O)[C@H](CCC(=O)O)NC(=O)[C@@H]2CSCc3cccc(c3)CSC[C@@H](C(N)=O)NC(=O)[C@H](CC(=O)NC[C@H](NC(=O)[C@@H](NC(=O)CN3CCC(NC(=O)CN4CCN(CC(=O)O)CCN(CC(=O)O)CCN(CC(=O)O)CC4)CC3)C(C)C)C(=O)N2)NC(=O)[C@H](Cc2c[nH]c3ccccc23)NC(=O)[C@H]([C@@H](C)O)NC1=O [3BP-4176] ({DOTA}-[X2]V[Dap]CE[dP]DWLTWDC-NH2; lactam 3-12; linker 4-13 via mXylylene) |
| – | < 10 | – | < 10 | – | CC(C)C[C@@H]1NC(=O)[C@H](Cc2c[nH]c3ccccc23)NC(=O)[C@H](CC(=O)O)NC(=O)[C@@H](CCCN(C)C)NC(=O)[C@H](CCC(=O)O)NC(=O)[C@@H](NC(=O)[C@H](Cc2ccc(O)cc2)NC(=O)[C@@H](NC(=O)CN2CCC(NC(=O)CN3CCN(CC(=O)O)CCN(CC(=O)O)CCN(CC(=O)O)CC3)CC2)C(C)C)CSCc2cccc(c2)CSC[C@@H](C(N)=O)NC(=O)[C@H](CO)NC(=O)[C@H](Cc2c[nH]c3ccccc23)NC(=O)[C@H]([C@@H](C)O)NC1=O [3BP-4097] ({DOTA}-[X2]VYCE[dOrn(Me2)]DWLTWSC-NH2; linker 4-13 via mXylylene) |
| A (t1/2>15.0 minutes) | < 10 | 10 to 79.4 | – | – | CC(C)C[C@@H]1NC(=O)[C@H](Cc2c[nH]c3ccccc23)NC(=O)[C@H](CCC(=O)Nc2cccc(S(N)(=O)=O)c2)NC(=O)[C@H]2CCCN2C(=O)[C@H](CCC(=O)O)NC(=O)[C@@H](NC(=O)[C@H](Cc2ccc(O)cc2)NC(=O)[C@@H](NC(=O)CN2CCC(NC(=O)CN3CCN(CC(=O)O)CCN(CC(=O)O)CCN(CC(=O)O)CC3)CC2)C(C)C)CSCc2cccc(c2)CSC[C@@H](C(N)=O)NC(=O)[C@H](CO)NC(=O)[C@H](Cc2c[nH]c3ccccc23)NC(=O)[C@H]([C@@H](C)O)NC1=O [3BP-4441] ({DOTA}-[X2]VYCE[dP]E(X41)WLTWSC-NH2; linker 4-13 via mXylylene) |
